Assay results taken from ChEMBL document CHEMBL5380866, “Discovery of Selective P2Y6R Antagonists with High Affinity and In Vivo Efficacy for Inflammatory Disease Therapy” (J Med Chem, 2023).
Values belong to the compound of their own block, whether it stands above or below them. Calls of active or inactive are those of the source. No cut-off for these calls is given here.

Legend:
P2Y purinoceptor 6 [1] = molecular target: T1, P2Y purinoceptor 6 (Homo sapiens, UniProt Q15077); experiment: Antagonist activity at human P2Y6R expressed in HEK293 cells assessed as inhibition of UDP-induced IP3 production preincubated for 0.5 hrs followed by UDP stimulation and measured after 12 hrs by ELISA analysis; assay type: functional, cell-based
T1 sequence (Q15077 whole entry): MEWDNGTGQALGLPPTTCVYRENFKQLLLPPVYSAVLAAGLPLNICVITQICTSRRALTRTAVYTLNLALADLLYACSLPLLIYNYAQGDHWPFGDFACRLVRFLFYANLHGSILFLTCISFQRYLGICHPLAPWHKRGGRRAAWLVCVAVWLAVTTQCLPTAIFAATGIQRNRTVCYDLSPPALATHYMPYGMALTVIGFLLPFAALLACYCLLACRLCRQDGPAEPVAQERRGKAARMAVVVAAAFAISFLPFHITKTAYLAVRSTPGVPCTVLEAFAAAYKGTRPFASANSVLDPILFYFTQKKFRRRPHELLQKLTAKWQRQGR

P2Y purinoceptor 12 = P2Y purinoceptor 12 (Homo sapiens, UniProt Q9H244); experiment: Antagonist activity at human P2Y12R expressed in HEK293 cells assessed as inhibition of MeSADP-induced cAMP production preincubated for 0.5 hrs followed by MeSADP stimulation by cAMP-glo analysis; assay type: functional, cell-based
P2Y purinoceptor 12, sequence (Q9H244 whole entry): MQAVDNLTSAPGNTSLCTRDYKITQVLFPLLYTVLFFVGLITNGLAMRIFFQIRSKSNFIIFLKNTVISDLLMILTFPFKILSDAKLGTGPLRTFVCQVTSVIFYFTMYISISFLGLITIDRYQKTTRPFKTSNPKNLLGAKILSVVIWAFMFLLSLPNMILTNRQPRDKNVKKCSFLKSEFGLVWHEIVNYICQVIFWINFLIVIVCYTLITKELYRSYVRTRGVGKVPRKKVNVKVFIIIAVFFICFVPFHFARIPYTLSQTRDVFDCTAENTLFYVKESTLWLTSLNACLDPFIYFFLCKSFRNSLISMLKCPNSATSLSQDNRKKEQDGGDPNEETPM

Mus musculus [2] = experiment: Anti-inflammatory activity against LPS-induced acute lung injury C57BL/6J mouse model assessed as reversal of increase in p-38 phosphorylation level 1 to 5 mg/kg, IT(Intratracheal) pretreated with LPS followed by compound addition and measured after 12 hrs by Western blot analysis; assay type: functional, organism-based; conditions: dose 1-5 mg/kg
Mus musculus [3] = experiment: Anti-inflammatory activity against LPS-induced acute lung injury C57BL/6J mouse model assessed as reduction in pulmonary edema administered IT(Intratracheal) pretreated with LPS followed by compound addition and measured after 12 hrs; assay type: functional, organism-based; conditions: dose 1-5 mg/kg
[4] = Half life in Sprague-Dawley rat at 2 mg/kg, iv measured at 3 to 480 mins by LC-MS/MS analysis; assay type: ADME, organism-based; conditions: in vivo, time 3-480 min
Mus musculus [5] = experiment: Anti-inflammatory activity against DSS-induced acute ulcerative colitis intrarectal dosed C57BL/6J mouse model assessed as […] ZO-1 expression at high dose measured after 8 hrs by Western blot analysis; assay type: functional, organism-based; conditions: route rec
Mus musculus [6] = experiment: Anti-inflammatory activity against DSS-induced acute ulcerative colitis intrarectal dosed C57BL/6J mouse model assessed as […] length administered daily from 1 to 7 days; assay type: functional, organism-based; conditions: route rec, time 1-7 day
Mus musculus [7] = experiment: Anti-inflammatory activity against LPS-induced acute lung injury C57BL/6J mouse model assessed as decrease in lung TNF-alpha mRNA expression level 1 to 5 mg/kg, IT(Intratracheal) pretreated with LPS followed by compound addition and measured after 12 hrs RT-PCR analysis; assay type: functional, organism-based; conditions: dose 1-5 mg/kg
[8] = Oral bioavailability in Sprague-Dawley rat at 20 mg/kg measured at 10 to 720 mins by LC-MS/MS analysis; assay type: ADME, organism-based; conditions: in vivo, time 10-720 min
Mus musculus [9] = experiment: Anti-inflammatory activity against DSS-induced acute ulcerative colitis intrarectal dosed C57BL/6J mouse model assessed as decrease in mucosal damage administered daily from 1 to 7 days by H and E staining based microscopic analysis; assay type: functional, organism-based; conditions: route rec, time 1-7 day
Mus musculus [10] = experiment: Anti-inflammatory activity against DSS-induced acute ulcerative colitis intrarectal dosed C57BL/6J mouse model assessed as […] Occludin expression at high dose measured after 8 hrs by Western blot analysis; assay type: functional, organism-based; conditions: route rec
HT-29 = experiment: Cytotoxicity against human HT-29 cells assessed as inhibition of cell growth at below 10 uM incubated for 12 to 24 hrs by CCK-8 assay; assay type: functional, cell-based; conditions: time 12-24 hrs
Mus musculus [11] = experiment: Anti-inflammatory activity against DSS-induced acute ulcerative colitis intrarectal dosed C57BL/6J mouse model assessed as decrease in crypt necrosis administered daily from 1 to 7 days by H and E staining based microscopic analysis; assay type: functional, organism-based; conditions: route rec, time 1-7 day
Mus musculus [12] = experiment: Anti-inflammatory activity against LPS-induced acute lung injury C57BL/6J mouse model assessed as reversal of increase in TLR4 expression level 1 to 5 mg/kg, IT(Intratracheal) pretreated with LPS followed by compound addition and measured after 12 hrs by Western blot analysis; assay type: functional, organism-based; conditions: dose 1-5 mg/kg
Mus musculus [13] = experiment: Anti-inflammatory activity against LPS-induced acute lung injury C57BL/6J mouse model assessed as decrease in TNF-alpha secretion in BALF 1 to 5 mg/kg, IT(Intratracheal) pretreated with LPS followed by compound addition and measured after 12 hrs ELISA analysis; assay type: functional, organism-based; conditions: dose 1-5 mg/kg
Mus musculus [14] = experiment: Inhibition of NLRP3 inflammasome activation in DSS-induced acute ulcerative colitis intrarectal dosed C57BL/6J mouse model assessed as decrease in colon NLRP3 expression measured after 8 hrs by Western blot analysis; assay type: functional, organism-based; conditions: route rec
Mus musculus [15] = experiment: Anti-inflammatory activity against LPS-induced acute lung injury C57BL/6J mouse model assessed as decrease in IL-1beta secretion in BALF 1 to 5 mg/kg, IT(Intratracheal) pretreated with LPS followed by compound addition and measured after 12 hrs ELISA analysis; assay type: functional, organism-based; conditions: dose 1-5 mg/kg
A549 = experiment: Cytotoxicity against human A549 cells assessed as inhibition of cell growth at below 10 uM incubated for 12 hrs by CCK-8 assay; assay type: functional, cell-based
Mus musculus [16] = experiment: Anti-inflammatory activity against DSS-induced acute ulcerative colitis intrarectal dosed C57BL/6J mouse model assessed as decrease in spleen index administered daily from 1 to 7 days; assay type: functional, organism-based; conditions: route rec, time 1-7 day
[17] = Clearance in Sprague-Dawley rat at 2 mg/kg, iv measured at 3 to 480 mins by LC-MS/MS analysis; assay type: ADME, organism-based; conditions: in vivo, time 3-480 min
Mus musculus [18] = experiment: Inhibition of NLRP3 inflammasome activation in DSS-induced acute ulcerative colitis intrarectal dosed C57BL/6J mouse model assessed as decrease in colon ASC expression measured after 8 hrs by Western blot analysis; assay type: functional, organism-based; conditions: route rec
P2Y purinoceptor 6 [19] = molecular target: T1, P2Y purinoceptor 6; experiment: Binding affinity to human recombinant P2Y6R assessed as dissociation constant by grating-coupled interferometry analysis
[20] = AUC (0 to t) in Sprague-Dawley rat at 2 mg/kg, iv measured at 3 to 480 mins by LC-MS/MS analysis; assay type: ADME, organism-based; design: dose 2 mg/kg, time 3-480 min, route iv; conditions: in vivo
[21] = Half life in Sprague-Dawley rat at 20 mg/kg, po measured at 10 to 720 mins by LC-MS/MS analysis; assay type: ADME, organism-based; conditions: in vivo, time 10-720 min
Mus musculus [22] = experiment: (§1) Anti-inflammatory activity against LPS-induced acute lung injury C57BL/6J mouse model assessed as restoration of lung structure at 1 to 5 mg/kg, IT(Intratracheal) pretreated with LPS followed by compound addition and measured after 12 hrs by H and E staining based microscopic analysis; assay type: functional, organism-based; conditions: dose 1-5 mg/kg
Mus musculus [23] = experiment: Anti-inflammatory activity against LPS-induced acute lung injury C57BL/6J mouse model assessed as decrease in lung IL-1beta mRNA expression level 1 to 5 mg/kg, IT(Intratracheal) pretreated with LPS followed by compound addition and measured after 12 hrs RT-PCR analysis; assay type: functional, organism-based; conditions: dose 1-5 mg/kg
Mus musculus [24] = experiment: Anti-inflammatory activity against DSS-induced acute ulcerative colitis intrarectal dosed C57BL/6J mouse model assessed as reduction in inflammatory infiltration administered daily from 1 to 7 days by H and E staining based microscopic analysis; assay type: functional, organism-based; conditions: route rec, time 1-7 day
[25] = Cmax in Sprague-Dawley rat at 20 mg/kg, po measured at 10 to 720 mins by LC-MS/MS analysis; assay type: ADME, organism-based; design: time upper 720 min, dose 20 mg/kg, time lower 10 min, route po; conditions: in vivo
[26] = Cmax in Sprague-Dawley rat at 2 mg/kg, iv measured at 3 to 480 mins by LC-MS/MS analysis; assay type: ADME, organism-based; design: time upper 480 min, time lower 3 min, dose 2 mg/kg, route iv; conditions: in vivo
Mus musculus [27] = experiment: Inhibition of NLRP3 inflammasome activation in DSS-induced acute ulcerative colitis intrarectal dosed C57BL/6J mouse model assessed as decrease in colon caspase-1 expression measured after 8 hrs by Western blot analysis; assay type: functional, organism-based; conditions: route rec
[28] = Tmax in Sprague-Dawley rat at 20 mg/kg, po measured at 10 to 720 mins by LC-MS/MS analysis; assay type: ADME, organism-based; conditions: in vivo, time 10-720 min
[29] = Volume of distribution in Sprague-Dawley rat at 2 mg/kg, iv measured at 3 to 480 mins by LC-MS/MS analysis; assay type: ADME, organism-based; conditions: in vivo, time 3-480 min
[30] = MRT in Sprague-Dawley rat at 2 mg/kg, iv measured at 3 to 480 mins by LC-MS/MS analysis; assay type: ADME, organism-based; conditions: in vivo, time 3-480 min
Mus musculus [31] = experiment: Anti-inflammatory activity against DSS-induced acute ulcerative colitis intrarectal dosed C57BL/6J mouse model assessed as decrease in goblet cells administered daily from 1 to 7 days by H and E staining based microscopic analysis; assay type: functional, organism-based; conditions: route rec, time 1-7 day
Mus musculus [32] = experiment: Anti-inflammatory activity against LPS-induced acute lung injury C57BL/6J mouse model assessed as reduction in inflammatory infiltration in BALF administered IT(Intratracheal) pretreated with LPS followed by compound addition and measured after 12 hrs; assay type: functional, organism-based; conditions: dose 1-5 mg/kg
Mus musculus [33] = experiment: as §1, with “reduction in inflammatory infiltration in” for “restoration of”, “lung” for “lung structure”; assay type: functional, organism-based; conditions: dose 1-5 mg/kg
[34] = AUC (0 to t) in Sprague-Dawley rat at 20 mg/kg, po measured at 10 to 720 mins by LC-MS/MS analysis; assay type: ADME, organism-based; design: time upper 720 min, time lower 10 min, dose 20 mg/kg, route po; conditions: in vivo
Mus musculus [35] = experiment: Anti-inflammatory activity against LPS-induced acute lung injury C57BL/6J mouse model assessed as reversal of increase in ERK-phosphorylation level 1 to 5 mg/kg, IT(Intratracheal) pretreated with LPS followed by compound addition and measured after 12 hrs by Western blot analysis; assay type: functional, organism-based; conditions: dose 1-5 mg/kg
Mus musculus [36] = experiment: Anti-inflammatory activity against LPS-induced acute lung injury C57BL/6J mouse model assessed as reversal of increase in MyD88 expression level 1 to 5 mg/kg, IT(Intratracheal) pretreated with LPS followed by compound addition and measured after 12 hrs by Western blot analysis; assay type: functional, organism-based; conditions: dose 1-5 mg/kg
Mus musculus [37] = experiment: Anti-inflammatory activity against DSS-induced acute ulcerative colitis intrarectal dosed C57BL/6J mouse model assessed as […] claudin-1 expression at high dose measured after 8 hrs by Western blot analysis; assay type: functional, organism-based; conditions: route rec
P2Y purinoceptor 6 [38] = molecular target: T1, P2Y purinoceptor 6; experiment: Antagonist activity at P2Y6R (unknown origin)

IC50 (P2Y purinoceptor 6 [1]): 216 nM
Structure (SMILES): CC(C)(C)n1nc(-c2nc3cc(Cl)ccc3[nH]2)cc1-c1ccccc1

IC50 (P2Y purinoceptor 6 [1]): 159 nM
Structure (SMILES): CC(C)(C)n1nc(-c2nc3ccccc3[nH]2)cc1-c1ccco1

IC50 (P2Y purinoceptor 6 [1]): 45.7 nM
Structure (SMILES): CC(C)(C)n1nc(-c2nc3cc(Br)ccc3[nH]2)cc1-c1ccco1

IC50 (P2Y purinoceptor 12): 1400 nM
Structure (SMILES): CCCSc1nc(N[C@@H]2C[C@H]2c2ccc(F)c(F)c2)c2nnn([C@@H]3C[C@H](OCCO)[C@@H](O)[C@H]3O)c2n1 [TICAGRELOR]

Structure (SMILES): CC(C)(C)n1nc(-c2nc3cc(Cl)ccc3[nH]2)cc1-c1ccco1
Activity (Mus musculus [2]): Active | Activity (Mus musculus [3]): Dose-Dependent Effect | half-life [4]: 1.81 h | Activity (Mus musculus [5]): Active | Activity (Mus musculus [6]): Dose-Dependent Effect | Activity (Mus musculus [7]): Active | bioavailability [8]: 15.9% | IC50 (P2Y purinoceptor 6 [1]): 5.91 nM | Activity (Mus musculus [9]): Active | Activity (Mus musculus [10]): Active | inhibition (HT-29): inactive | Activity (Mus musculus [11]): Active | Activity (Mus musculus [12]): Active | Activity (Mus musculus [13]): Active | inhibition (Mus musculus [14]): Active | Activity (Mus musculus [15]): Active | inhibition (A549): inactive | Activity (Mus musculus [16]): Dose-Dependent Effect | clearance [17]: 130 mL/min/kg | inhibition (Mus musculus [18]): Active | Kd (P2Y purinoceptor 6 [19]): 3470 nM | AUC(0-t) [20]: 261 ng·h/mL | half-life [21]: 6.46 h | Activity (Mus musculus [22]): Active | Activity (Mus musculus [23]): Active | Activity (Mus musculus [24]): Active | Cmax [25]: 53.7 ng/mL | Cmax [26]: 1050 ng/mL | inhibition (Mus musculus [27]): Active | Tmax [28]: 2 h | Vd [29]: 20.1 L/kg | MRT [30]: 0.575 h | Activity (Mus musculus [31]): Active | Activity (Mus musculus [32]): Dose-Dependent Effect | Activity (Mus musculus [33]): Active | AUC(0-t) [34]: 415 ng·h/mL | Activity (Mus musculus [35]): Active | Activity (Mus musculus [36]): Active | Activity (Mus musculus [37]): Active

IC50 (P2Y purinoceptor 6 [1]): 87.8 nM
Structure (SMILES): CC(C)n1nc(-c2nc3ccccc3s2)cc1-c1ccccc1

Structure (SMILES): O=S(=O)(O)c1cc(N=C=S)ccc1/C=C/c1ccc(N=C=S)cc1S(=O)(=O)O
IC50 (P2Y purinoceptor 6 [38]): 5200 nM
